Here are results for six substances from patent US5504191A, “Human cancer inhibitory pentapeptide methyl esters” (priority 1994, dated 1996).

Some results are limits rather than exact numbers.

The subject of one experiment is Human Mammary Xenograph. The experiment in a line: Dolastatin 10 in vivo, human mammary xenograph. The following applies: nude mouse, 26 μg/kg. An excerpt:
(§1) The synthesis of potentially useful peptides presents one of the most essential and promising approaches to new types of anticancer and immunosuppressant drugs. The Dolastatins, an unprecedented series of linear and cyclic antineoplastic and/or cytostatic peptides isolated from Indian Ocean sea hare Dolabella auricularia represent excellent leads for synthetic modification. The very productive sea hare Dolabella auricularia has produced a number of structurally distinct peptides with excellent antineoplastic activity. Presently Dolastatin 10, a linear pentapeptide, represents the most important member and is a potentially useful antineoplastic agent. […] Recently the total synthesis and absolute configuration of this structurally unique and biologically active peptide was discovered.

The test system of experiment [1] is OVCAR-3 Human Ovary Xenograph. The experiment is described as follows: Dolastatin 10 in vivo, OVCAR-3 human ovary xenograph. To be noted: OVCAR-3 xenograph, nude mouse, 40 μg/kg.
Source text: as §1

The subject of experiment [2] is LOX Human Melanoma Xenograph. The experiment is described as follows: Dolastatin 10 in vivo, LOX human melanoma xenograph. The following applies: nude mouse.
Source text: as §1

The subject of a further experiment is KM20L2. The experiment is described as follows: Human cancer cell line growth inhibition, Colon KM20L2. It counts as cell-based. The following applies: Colon KM20L2, 48 hrs. The text has this: (§2) Current research in the control of cancer in the United States is coordinated by the National Cancer Institute (NCI). To determine whether a substance has anti-cancer properties, the NCI has established a systematic protocol. […] The protocol, and the established statistical means for analyzing the results obtained by the standardized testing are fully described in the literature. See: Boyd, Dr. Michael R., Principles & Practice of Oncology, PPO Updates, Volume 3, Number 10, October 1989, for an in depth description of the testing protocol; and Paull K. D., "Display and Analysis of Patterns of Differential Activity of Drugs Against Human Tumor Cell Lines; Development of Mean Graph and COMPARE Algorithm" Journal of the National Cancer Institute Reports, Vol. 81, No. 14, Page 1088, Jul. 14, 1989 for a description of the methods of statistical analysis employed to evaluate the test results. Both of these references are incorporated herein by this reference thereto.
(§3) ED50 (P388) and GI50 (HTCL) identify the drug dose which reduces the percent tumor/cell growth to 50%. There is no mathematical difference between ED50 and GI50, both of which are calculated using the same formula. The only difference is historical usage.
(§4) TGI, means "Total Growth Inhibition" and identifies the drug dose needed to yield zero percent growth, i.e. there are just as many cells at the end of the experiment as were present at the beginning. Whether just as many cells were killed as were produced (steady state), or no growth occurred (total inhibition) cannot be distinguished.
(§5) LC50, means "Lethal Concentration 50%", and identifies the drug concentration which reduces to one-half of the cells originally present at the beginning of the experiment.
(§6) Each drug is tested at five (5) doses: 100 - 10 - 1 - 0.1 - 0.01 - μg/ml. Percent Growths are calculated for each dose. The two (or three) doses with growth values above, below, (or near to) 50% growth are used to calculate the ED50 /GI50 values using a linear regression computation. If no dose yields a growth value under 50%, the results are expressed as: ED50 >(highest dose). If no dose yields growth higher than 50% growth, then ED50 <(lowest dose). Similar calculations are performed for the TGI at 0% growth, and at -50% growth for the LC50.
(§7) At the start of each experiment, cells from the in vitro cell cultures are inoculated into the appropriate tubes or microtiter plates. One set of control tubes/plates is immediately counted to determine the number of cells at the start of the experiment. This is the "baseline count" or "Tzero reading". At the end of the experiment (48 hrs later), a second set of control tubes/plates is analyzed to determine the "Control Growth" value. The growth (or death) of cells relative to the initial quantity of cells is used to define the "Percent of Growth."

A further experiment concerns SF-295. The experiment in a line: Human cancer cell line growth inhibition, CNS SF-295. The following applies: CNS SF-295, 48 hrs. It counts as cell-based.
Source text: as §2, §3, §4, §5, §6, §7

For the next experiment, the system named is PS-388 Mouse Leukemia. The experiment is described as follows: PS-388 mouse leukemia cell growth inhibition (ED50). It counts as cell-based. The following applies: Mouse Leukemia PS-388. On the procedure:
as §3, §6, §7

For a further experiment, the system named is NCI-H460. The experiment in a line: Human cancer cell line growth inhibition, Lung-NSC NCI-H460. It counts as cell-based. To be noted: Lung-NSC NCI-H460, 48 hrs.
Source text: as §2, §3, §4, §5, §6, §7

For a further experiment, the system named is SK-MEL-5. The experiment in a line: Human cancer cell line growth inhibition, Melanoma SK-MEL-5. It counts as cell-based. The following applies: Melanoma SK-MEL-5, 48 hrs.
Source text: as §2, §3, §4, §5, §6, §7

For another experiment, the system named is OVCAR-3. The experiment in a line: Human cancer cell line growth inhibition, Ovarian OVCAR-3. It counts as cell-based. To be noted: Ovarian OVCAR-3, 48 hrs.
Source text: as §2, §3, §4, §5, §6, §7

The next experiment relates to A498. The experiment is described as follows: Human cancer cell line growth inhibition, Renal A498. It counts as cell-based. The following applies: Renal A498, 48 hrs.
Source text: as §2, §3, §4, §5, §6, §7

Turning to Dolastatin 10, the T/C result with Human Mammary Xenograph is “Toxic”; in experiment [1] it was 300; in [2] (3.25 μg/kg), 170; in experiment [2] (52 μg/kg), “toxic”. Further, the cures in experiment [2] (3.25 μg/kg) came out at 17%; in experiment [2] (6.5 μg/kg), 33%; in experiment [2] (13 μg/kg), 50%; in experiment [2] (26 μg/kg) it was 67%.

With Dov--Val--Dil--Dap--His--OMe [10b], the GI-50 is 0.00099 µg/mL in the experiment on KM20L2; greater than 0.01 µg/mL in the experiment with SF-295; greater than 0.01 µg/mL in the experiment with NCI-H460; 0.0008 µg/mL in the experiment with SK-MEL-5; 0.00071 µg/mL in the experiment on OVCAR-3; greater than 0.01 µg/mL with A498. The LC-50 in the experiment on KM20L2, in the experiment on SF-295, in the experiment with NCI-H460, with SK-MEL-5, in the experiment with OVCAR-3 and in the experiment on A498 was greater than 0.01 µg/mL in each case. The TGI in the experiment on KM20L2, in the experiment on SF-295, in the experiment with NCI-H460, in the experiment on SK-MEL-5, in the experiment with OVCAR-3 and in the experiment on A498 was greater than 0.01 µg/mL each time. This substance yielded an ED-50 in the experiment on PS-388 Mouse Leukemia greater than 0.01 µg/mL.

As to “Dov--Val--Dil--Dap--N^ε --Z--Lys--OMe [10a]”, the GI-50 with KM20L2 is greater than 0.01 µg/mL; with SF-295, greater than 0.01 µg/mL; in the experiment with NCI-H460, greater than 0.01 µg/mL; in the experiment with SK-MEL-5, 0.003 µg/mL; in the experiment with OVCAR-3 it was 0.0069 µg/mL; in the experiment on A498 it was greater than 0.01 µg/mL. Moreover, the LC-50 with KM20L2, with SF-295, in the experiment on NCI-H460, in the experiment on SK-MEL-5, in the experiment on OVCAR-3 and in the experiment with A498 was greater than 0.01 µg/mL in each case. Moreover, the TGI in the experiment with KM20L2, in the experiment on SF-295, in the experiment on NCI-H460, in the experiment on SK-MEL-5, in the experiment with OVCAR-3 and in the experiment with A498 was greater than 0.01 µg/mL throughout. The substance also showed an ED-50 with PS-388 Mouse Leukemia greater than 0.01 µg/mL.

As for “N^α,N^ε --di--Z--Lys--Val--Dil--Dap--His--OMe [11a]”, the GI-50 was 0.29 µg/mL with KM20L2; 0.67 µg/mL in the experiment on SF-295; 0.27 µg/mL in the experiment on NCI-H460; 0.08 µg/mL in the experiment on SK-MEL-5; 0.12 µg/mL with OVCAR-3; greater than 1 µg/mL with A498. For the same substance, the LC-50 in the experiment with KM20L2, with SF-295, with NCI-H460, in the experiment with SK-MEL-5, with OVCAR-3 and in the experiment on A498 was greater than 1 µg/mL in each case. The concentration for total growth inhibition (TGI) (as a rule, the concentration giving total growth inhibition) is greater than 1 µg/mL in the experiment with KM20L2; greater than 1 µg/mL with SF-295; greater than 1 µg/mL in the experiment with NCI-H460; greater than 1 µg/mL in the experiment with SK-MEL-5; 0.67 µg/mL with OVCAR-3; greater than 1 µg/mL with A498. The substance further yielded an ED-50 with PS-388 Mouse Leukemia greater than 1 µg/mL.

As to “N^γ,N^γ,N^α --tri--Z--Arg--Val--Dil--Dap--Met--OMe [11c]”, the GI-50 in the experiment with KM20L2 worked out at 0.28 µg/mL; in the experiment on SF-295, 0.13 µg/mL; in the experiment with NCI-H460, 0.25 µg/mL; in the experiment on SK-MEL-5, 0.38 µg/mL; in the experiment with OVCAR-3, 0.074 µg/mL; with A498, 0.6 µg/mL. Further, the LC-50 in the experiment with KM20L2, in the experiment on SF-295, in the experiment with NCI-H460, with SK-MEL-5, with OVCAR-3 and in the experiment with A498 was greater than 1 µg/mL each time. For the same substance, the TGI is greater than 1 µg/mL with KM20L2; greater than 1 µg/mL in the experiment on SF-295; 0.62 µg/mL with NCI-H460; greater than 1 µg/mL in the experiment on SK-MEL-5; 0.74 µg/mL in the experiment on OVCAR-3; greater than 1 µg/mL in the experiment on A498. In the experiment on PS-388 Mouse Leukemia, this substance had an ED-50 of 0.329 µg/mL.

Regarding “N^γ,N^γ,N^α --tri--Z--Arg--Val--Dil--Dap--N^ε --Z--Lys--OMe [11b]”, the GI-50 with KM20L2, in the experiment with SF-295, in the experiment on NCI-H460, in the experiment on SK-MEL-5, in the experiment on OVCAR-3 and in the experiment with A498 was greater than 1 µg/mL in each case. In addition, the LC-50 with KM20L2, with SF-295, with NCI-H460, in the experiment on SK-MEL-5, in the experiment on OVCAR-3 and in the experiment on A498 was greater than 1 µg/mL in each case. The total growth inhibition concentration (TGI) with KM20L2, in the experiment on SF-295, in the experiment on NCI-H460, in the experiment with SK-MEL-5, with OVCAR-3 and in the experiment on A498 was greater than 1 µg/mL each time. In the experiment on PS-388 Mouse Leukemia, this substance yielded an ED-50 of 0.513 µg/mL.
